This passage reports Ki app and IC50 results from ChEMBL document CHEMBL1123274, “Azasteroids: structure-activity relationships for inhibition of 5 alpha-reductase and of androgen receptor binding” (J Med Chem, 1986).

Test [1] deals with T1, Steroid 5-alpha-reductase (Rattus norvegicus, UniProt P24008+P31214).
T1 sequence (P24008 whole entry): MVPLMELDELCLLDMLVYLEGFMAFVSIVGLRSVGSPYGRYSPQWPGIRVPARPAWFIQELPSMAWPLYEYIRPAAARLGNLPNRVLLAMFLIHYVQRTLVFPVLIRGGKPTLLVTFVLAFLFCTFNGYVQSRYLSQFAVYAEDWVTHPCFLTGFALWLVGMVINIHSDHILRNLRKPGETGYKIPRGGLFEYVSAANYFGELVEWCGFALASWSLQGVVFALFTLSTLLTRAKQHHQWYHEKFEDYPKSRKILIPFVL
T1 sequence (P31214 whole entry): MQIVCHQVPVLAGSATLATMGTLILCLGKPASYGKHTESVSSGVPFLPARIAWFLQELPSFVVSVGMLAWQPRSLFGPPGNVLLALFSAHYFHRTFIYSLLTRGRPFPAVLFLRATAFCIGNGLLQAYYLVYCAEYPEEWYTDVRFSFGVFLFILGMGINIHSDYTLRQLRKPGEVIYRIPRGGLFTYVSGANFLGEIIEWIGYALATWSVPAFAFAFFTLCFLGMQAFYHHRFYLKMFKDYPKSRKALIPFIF
The test is described as follows: Apparent inhibitory constant value for rat prostatic steroid 5-alpha reductase was determined. The format is protein assay.

Test [2] addresses T1, Steroid 5-alpha-reductase. In words: In vitro inhibitory activity against rat prostatic steroid 5-alpha-reductase. It counts as protein assay.
Another test addresses T2, Androgen receptor (Rattus norvegicus, UniProt P15207).
T2 sequence (P15207 whole entry): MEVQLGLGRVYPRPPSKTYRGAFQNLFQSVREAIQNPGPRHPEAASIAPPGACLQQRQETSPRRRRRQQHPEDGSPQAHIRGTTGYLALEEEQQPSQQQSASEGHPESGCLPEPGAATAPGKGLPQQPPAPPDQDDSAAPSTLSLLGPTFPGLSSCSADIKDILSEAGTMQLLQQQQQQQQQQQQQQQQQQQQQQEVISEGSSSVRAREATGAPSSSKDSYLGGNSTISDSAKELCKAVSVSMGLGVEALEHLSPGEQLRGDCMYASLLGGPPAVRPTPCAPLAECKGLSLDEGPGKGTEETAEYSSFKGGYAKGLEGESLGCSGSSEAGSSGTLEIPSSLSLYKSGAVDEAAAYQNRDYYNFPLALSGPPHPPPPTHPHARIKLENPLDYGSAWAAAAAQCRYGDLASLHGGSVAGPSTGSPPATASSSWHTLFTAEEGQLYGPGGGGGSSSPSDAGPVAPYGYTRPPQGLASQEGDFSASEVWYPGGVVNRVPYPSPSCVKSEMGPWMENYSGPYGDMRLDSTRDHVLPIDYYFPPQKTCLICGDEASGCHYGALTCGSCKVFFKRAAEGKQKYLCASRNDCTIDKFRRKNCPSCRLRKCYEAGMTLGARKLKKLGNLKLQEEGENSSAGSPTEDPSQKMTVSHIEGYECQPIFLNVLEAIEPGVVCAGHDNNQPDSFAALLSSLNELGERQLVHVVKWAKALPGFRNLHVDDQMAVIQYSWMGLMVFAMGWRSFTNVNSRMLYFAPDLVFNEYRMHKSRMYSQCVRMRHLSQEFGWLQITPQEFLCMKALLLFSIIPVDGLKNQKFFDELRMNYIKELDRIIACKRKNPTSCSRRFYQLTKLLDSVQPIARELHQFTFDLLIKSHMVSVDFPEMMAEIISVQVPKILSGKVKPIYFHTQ
The test is described as follows: In vitro antagonist activity against rat prostatic androgen receptor (AR).

The target in test [3] is T1, Steroid 5-alpha-reductase. In words: Apparent inhibitory constant value for rat prostatic steroid 5alpha reductase was determined. It counts as protein assay.
The target of test [4] is T1, Steroid 5-alpha-reductase. In words: Apparent inhibitory constant value for rat prostatic 5-alpha reductase was determined. It counts as protein assay.
Test [5] addresses T1, Steroid 5-alpha-reductase. In words: Inhibition of Steroid 5-alpha-reductase from rat prostate. The format is tissue-based, Prostate gland.

For the compound `CN1C(=O)CC[C@@]2(C)C1CC[C@@H]1[C@@H]2CC[C@@]2(C)[C@H]1CC[C@@]21CCCO1` (some centres undefined), the Ki app in test [1] turned out to be 0.024 µM. The IC50 in test [2] was 0.037 µM; against Androgen receptor, 0.14 µM.
For `CC(C)N(C(=O)[C@H]1CC[C@H]2[C@@H]3CCC4NC(=O)CC[C@]4(C)[C@H]3CC[C@]12C)C(C)C` (some centres undefined), in that order: 0.013 µM, 0.011 µM and greater than 100 µM.
With `CCN(CC)C(=O)[C@H]1CC[C@H]2[C@@H]3CC[C@H]4N(C)C(=O)CC[C@]4(C)[C@H]3CC[C@]12C`, the Ki app in test [3] amounted to 0.005 µM. For the same compound, the IC50 in test [2] is 0.011 µM; at Androgen receptor, 2.8 µM.
`COC(=O)[C@H]1CC[C@H]2[C@@H]3CCC4N(C)C(=O)CC[C@]4(C)[C@H]3CC[C@]12C` (some centres undefined): the IC50 in test [2] stood at 0.0076 µM; on Androgen receptor, 0.12 µM. In addition, in test [4], the Ki app amounted to 0.165 µM.
`CC(O)[C@@]1(O)CC[C@H]2[C@@H]3CCC4N(C)C(=O)CC[C@]4(C)[C@H]3CC[C@@]21C` (some centres undefined): the Ki app in test [1] was determined as 0.006 µM. In addition, the IC50 in test [2] came out at 0.0076 µM; on Androgen receptor, 1.9 µM.
Consider `CCN(CC)C(=O)[C@H]1CC[C@H]2[C@@H]3CC[C@@H]4NC(=O)CC[C@]4(C)[C@H]3CC[C@]12C` (stereo in doubt; 9x), for which the Ki app in test [1] was determined as 0.029 µM. Further, the IC50 in test [2] was 0.041 µM; against Androgen receptor, greater than 100 µM.
For `C[C@]12CC[C@H]3[C@@H](CCC4=CC(=O)CC[C@@H]43)[C@@H]1CC[C@@]21CCCO1`, the IC50 was 1.5 µM in test [5] and 0.03 µM at Androgen receptor.
In the case of `CC(C(=O)[O-])[C@H]1CC[C@H]2[C@@H]3CCC4N(C)C(=O)CC[C@]4(C)[C@H]3CC[C@]12C.[Na+]` (some centres undefined), the Ki app in test [1] was 0.0017 µM. Further, the IC50 amounted to 0.0017 µM in test [2] and 46 µM against Androgen receptor.
Consider `CCN(CC)C(=O)[C@H]1CC[C@H]2[C@@H]3CCC4=CC(=O)CC[C@]4(C)[C@H]3CC[C@]12C`, for which the IC50 is 0.76 µM in test [5] and 0.34 µM against Androgen receptor.
As to `CN1C(=O)CC[C@@]2(C)C1CC[C@H]1[C@@H]3CC[C@H](O)[C@@]3(C)CC[C@@H]12` (some centres undefined), the results for the IC50 (in test [5]; against Androgen receptor) were 0.15 µM and 0.019 µM, respectively.
Regarding `COC(=O)[C@H]1CC[C@H]2[C@@H]3CCC4=CC(=O)CC[C@]4(C)[C@H]3CC[C@]12C`, the IC50 in test [5] worked out at 0.48 µM; against Androgen receptor it was 0.14 µM.

As a reminder, the IC50 is the concentration needed to halve the response being measured. The low end stands for greater potency, the high end for weaker potency.
